In patent US6087118A, “Method for diagnosing alzheimer's disease” (priority 1999, dated 2000):
Entries after “also recorded” stand apart in the source; their conditions may differ.

What was measured:
[1] = test system: K+ channels in human platelets; test: Ionomycin-stimulated 86Rb+ efflux from perfused platelets; type: cell-based; conditions: for Effect on ionomycin-stimulated 86Rb+ efflux, pooled data (FIG. 3a) / Inhibition of ionomycin-stimulated 86Rb+ efflux in 9 of 11 control subjects / Inhibition of ionomycin-stimulated 86Rb+ efflux in two control subjects: control subjects; for Effect on ionomycin-stimulated 86Rb+ efflux, pooled data (FIG. 3a) / Effect on ionomycin-stimulated 86Rb+ efflux, pooled data (FIG. 3b): n=11; for Effect on ionomycin-stimulated 86Rb+ efflux, pooled data (FIG. 3a) / Effect on ionomycin-stimulated 86Rb+ efflux, pooled data (FIG. 3b) / Inhibition in controls (%) of ionomycin-stimulated 86Rb+ efflux / Inhibition in Alzheimer's disease (%) of ionomycin-stimulated 86Rb+ efflux: ionomycin 1 μM, apamin 100 nM, charybdotoxin 300 nM; for Effect on ionomycin-stimulated 86Rb+ efflux, pooled data (FIG. 3a): P<0.0001; for Inhibition of ionomycin-stimulated 86Rb+ efflux in 9 of 11 control subjects: the 9 of 11 that responded; for Inhibition of ionomycin-stimulated 86Rb+ efflux in two control subjects: the other 2 of 11 (minimal effects); for Inhibition of ionomycin-stimulated 86Rb+ efflux in 8 of 11 patients with AD: 8 of 11 (minimal effects); for Effect on ionomycin-stimulated 86Rb+ efflux, pooled data (FIG. 3b): patients with Alzheimer's disease, P=0.883; for Inhibition in controls (%) of ionomycin-stimulated 86Rb+ efflux: platelets of age- and sex-matched controls; for Inhibition in controls (%) of ionomycin-stimulated 86Rb+ efflux / Inhibition in Alzheimer's disease (%) of ionomycin-stimulated 86Rb+ efflux: median (interquartile range); for Inhibition in Alzheimer's disease (%) of ionomycin-stimulated 86Rb+ efflux: platelets of patients with AD
Method: (§1) Platelet perfusion^17. Blood was drawn by venepuncture and anticoagulated with acid-citratedextrose (ACD). Platelets were prepared by centrifugation within an hour of venesection and incubated with ^86 Rb^+ for 2 h. The platelet suspension (2.5×10^7 platelets per ml) was then injected into perfusion chambers, where the cells settled and became immobilized on inert filters (Millipore). The platelets were then continuously perfused with Krebs solution, to allow them to stabilize for 20 min before the start of each experiment. The perfusion buffer was then changed for 5 min to Krebs solution containing thrombin (0.3 IU/ml) or ionomycin (1 μM), after which the perfusion was switched to the original solution and continued for another 20 min. From 0 to 10 min after the addition of thrombin or ionomycin the perfusate was collected at 1-min intervals and thereafter at 2-min intervals. The solutions used for perfusion were bubbled with 95% O2 and 5% CO2 throughout the experiment (pH 7.4). At the end of the experiment the polycarbonate filters were retrieved and placed in scintillation vials, to which 3.5 ml of Aquasafe 500 scintillation fluid was added. The radioactivity in the perfusates and filters was determined by liquid scintillation counting in a Beckmann LS 6000 SE counter and the loss of radioactivity from the cells was calculated. The amount of ^86 Rb^+ (pmol) in each fraction of perfusate collected was determined using the specific activity of the isotope. The radioactivity was measured in each fraction and the results were plotted as the cumulative efflux of ^86 Rb^+ against time.
(§2) Buffers and drucas. ACD contained citric acid (15 g), trisodium citrate (25 g), and dextrose (20 g) in 1 l of distilled water. Krebs buffer contained (mmol/l): NaCl (119); KCl (4.6); CaCl2 (1.5); NaH2 PO4 (1.2); MgCl2 (1.2); NaHCO3 (15); and glucose (11). Apamin, charybdotoxin, α-dendrotoxin, iberiotoxin, ionomycin, and human thrombin were purchased from Sigma Chemical Company, Poole, Dorset. ^86 RbCl was purchased from Amersham International plc (Amersham, Bucks).
(§3) Thrombin and ionomycin. Solutions of thrombin were prepared freshly in distilled water for each experiment and further diluted to a concentration of 0.3 IU/ml in Krebs solution. Stock solutions of ionomycin (10 mM in dimethylsulphoxide) were prepared and stored in aliquots at 4° C. On the day of the experiment ionomycin was further diluted in Krebs solution to a concentration of 1 μM.
(§4) Apamin, charybdotoxin, iberiotoxin, and α-dendrotoxin. Apamin, charybdotoxin, iberiotoxin, and α-dendrotoxin were […]. Apamin, (100 nM), charybdotoxin (300 nM), iberiotoxin (300 nM), and α-dendrotoxin (200 nM) were reconstituted in distilled water and stored in aliquots at -20° C. On the day of the experiment the toxins were further diluted in Krebs solution. Apamin was pre-incubated with the platelets (added at time -20 min) and charybdotoxin, iberiotoxin, and α-dendrotoxin were added with thrombin (at 0 min) for a period of 5 min.
(§5) Data Dresentation and analysis. The results in FIGS. 1-3 are shown as cumulative effluxes of ^86 Rb^+ from 0 to 14 min. The data are shown as means±SEMs (n=number of experiments with platelets obtained from different volunteers). The efflux data were analyzed using analysis of variance with repeated measures.
(§6) K^+ channel fluxes. Platelets were prepared and their K^+ channel fluxes studied as described by DeSilva, H. A. et al^17, by loading fresh platelets with ^86 Rb^+ (used as a radioactive analogue of K^+)^18,19 and stimulating ^86 Rb^+ efflux with thrombin and ionomycin.

[2] = test system: K+ channels in human platelets; test: Thrombin-stimulated 86Rb+ efflux from perfused platelets; type: cell-based; conditions: for Effect on thrombin-stimulated 86Rb+ efflux, pooled data (FIGS. 1a, 2a) / Inhibition of thrombin-stimulated 86Rb+ efflux in 8 of 11 control subjects / Inhibition of thrombin-stimulated 86Rb+ efflux in the other three control subjects: control subjects; for Effect on thrombin-stimulated 86Rb+ efflux, pooled data (FIGS. 1a, 2a): n=11, P<0.0001; for Effect on thrombin-stimulated 86Rb+ efflux, pooled data (FIGS. 1a, 2a) / Effect on thrombin-stimulated 86Rb+ efflux, pooled data (FIGS. 1b, 2b) / Inhibition in controls (%) of thrombin-stimulated 86Rb+ efflux / Inhibition in Alzheimer's disease (%) of thrombin-stimulated 86Rb+ efflux: thrombin 0.3 IU/ml, apamin 100 nM, charybdotoxin 300 nM, α-dendrotoxin 200 nM; for Inhibition of thrombin-stimulated 86Rb+ efflux in 8 of 11 control subjects: the 8 of 11 that responded; for Inhibition of thrombin-stimulated 86Rb+ efflux in the other three control subjects: the other 3 of 11 (minimal effects); for Inhibition of thrombin-stimulated 86Rb+ efflux in 9 of 12 patients with AD: 9 of 12 (minimal effects); for Inhibition of thrombin-stimulated 86Rb+ efflux in the other three patients with AD: the other 3 of 12; for Effect on thrombin-stimulated 86Rb+ efflux, pooled data (FIGS. 1b, 2b): patients with Alzheimer's disease, n=12; for Inhibition in controls (%) of thrombin-stimulated 86Rb+ efflux: platelets of age- and sex-matched controls; for Inhibition in controls (%) of thrombin-stimulated 86Rb+ efflux / Inhibition in Alzheimer's disease (%) of thrombin-stimulated 86Rb+ efflux: median (interquartile range); for Inhibition in Alzheimer's disease (%) of thrombin-stimulated 86Rb+ efflux: platelets of patients with AD
Method: as §1, §2, §3, §4, §5, §6

sodium/potassium pump = test: Uptake of 86Rb+ by platelets; type: cell-based, human; conditions: unpublished observations of de Silva & Aronson

Compound | Effect on ionomycin-stimulated 86Rb+ efflux, pooled data (FIG. 3a) [1] | Inhibition of ionomycin-stimulated 86Rb+ efflux in 9 of 11 control subjects [1] | Inhibition of ionomycin-stimulated 86Rb+ efflux in two control subjects [1] | Inhibition of ionomycin-stimulated 86Rb+ efflux in 8 of 11 patients with AD [1] | Effect on ionomycin-stimulated 86Rb+ efflux, pooled data (FIG. 3b) [1] | Inhibition in controls (%) of ionomycin-stimulated 86Rb+ efflux ([1]; iberiotoxin 300 nM) | Inhibition in Alzheimer's disease (%) of ionomycin-stimulated 86Rb+ efflux ([1]; iberiotoxin 300 nM) | Effect on thrombin-stimulated 86Rb+ efflux, pooled data (FIGS. 1a, 2a) [2] | Inhibition of thrombin-stimulated 86Rb+ efflux in 8 of 11 control subjects [2] | Inhibition of thrombin-stimulated 86Rb+ efflux in the other three control subjects [2] | Inhibition of thrombin-stimulated 86Rb+ efflux in 9 of 12 patients with AD [2] | Inhibition of thrombin-stimulated 86Rb+ efflux in the other three patients with AD [2] | Effect on thrombin-stimulated 86Rb+ efflux, pooled data (FIGS. 1b, 2b) [2] | Inhibition in controls (%) of thrombin-stimulated 86Rb+ efflux [2] | Inhibition in Alzheimer's disease (%) of thrombin-stimulated 86Rb+ efflux [2] | further results
CC(C)C[C@@H]1NC(=O)[C@H](C)NC(=O)[C@H]([C@@H](C)O)NC(=O)[C@H](CCC(=O)O)NC(=O)[C@@H]2CCCN2C(=O)[C@H](C)NC(=O)[C@H](CCCCN)NC(=O)[C@@H]2CSSC[C@@H](C(=O)N[C@@H](CCC(N)=O)C(=O)N[C@@H](CCC(N)=O)C(=O)N[C@@H](Cc3cnc[nH]3)C(N)=O)NC(=O)[C@H](CCCNC(=N)N)NC(=O)[C@H](CCCNC(=N)N)NC(=O)[C@H](C)NC(=O)[C@H](CSSC[C@H](N)C(=O)N[C@@H](CC(N)=O)C(=O)N2)NC1=O [Apamin] | inhibited | at least 18% | less than 12% | less than 12% | no significant effect | 30 (20-31) % | 1 (0-20) % | inhibited | at least 18% | less than 10% | less than 10% | at least 16% | no significant effect | 26 (20-27) % | 0 (0-0) % | Effect on ionomycin-stimulated 86Rb+ efflux, pooled data (FIG. 3a) ([1]; listed as apamin): significant reductions; Effect on ionomycin-stimulated 86Rb+ efflux, pooled data (FIG. 3b) ([1]; listed as apamin): minimal effects; Effect on thrombin-stimulated 86Rb+ efflux, pooled data (FIGS. 1a, 2a) ([2]; listed as apamin): significant reductions; Effect on thrombin-stimulated 86Rb+ efflux, pooled data (FIGS. 1b, 2b) ([2]; listed as apamin): neither apamin nor charybdotoxin caused significant reductions
C[C@@H]1O[C@@H](O[C@H]2C[C@@H](O)[C@]3(CO)[C@H]4[C@H](O)C[C@]5(C)[C@@H](C6=CC(=O)OC6)CC[C@]5(O)[C@@H]4CC[C@]3(O)C2)[C@H](O)[C@H](O)[C@H]1O [ouabain] |  |  |  |  |  |  |  |  |  |  |  |  |  |  |  | Share of 86Rb+ uptake in platelets inhibitable by ouabain (sodium/potassium pump): over 90%
charybdotoxin | inhibited; also recorded: significant reductions | ≥ 22% | less than 12% | less than 12% | no significant effect; also recorded: minimal effects | 28 (20-34) % | 4 (1-26) % | inhibited; also recorded: significant reductions | ≥ 16% | less than 10% | less than 10% | at least 16% | no significant effect; also recorded: neither apamin nor charybdotoxin caused significant reductions | 22 (18-29) % | 0 (0-4) % | 
iberiotoxin (QFTDVDCSVSKECWSVCKDLFGVDRGKCMGKKCRCYQ; UniProt P24663 1-37, looked up) [purchased from Sigma] |  |  |  |  |  | 2 (0-3) % | 0 (0-4) % |  |  |  |  |  |  |  |  | Effect on ionomycin-stimulated effluxes in platelets from any individual ([1]; patients with AD and controls, iberiotoxin 300 nM): no effect
α-dendrotoxin |  |  |  |  |  |  |  | inhibited |  |  |  |  | inhibited | 26 (20-29) % | 19 (18-27) % | 
